# Where a SMILES comes first, the peptide text is derived from it. The star is where a group is joined. Cbz = O=C(OCc1ccccc1)*
# Tests used:
# [1] = tested on: NIH3T3 cells; experiment: Flow cytometry / immunoblot of NIH3T3 cells stably expressing YFP-LOV2 domain fusions, dark vs blue light; assay type: cell-based; conditions: 10 μM MG132, blue light 2 hours, FACS analysis
# Experimental: Genes encoding the proteins tested as fusions to the BLID domain were cloned by standard techniques in the retroviral pBMN vector encoding an iHcRed-t or iBlasticidin. The ΦNX ecotropic packaging cell line was cultured in DMEM supplemented with 10% heat-inactivated fetal bovine serum, 2 mM glutamine, 100 U/mL penicillin and 100 μg/mL streptomycin. The NIH3T3 cell line was cultured in DMEM supplemented with 10% heat-inactivated donor bovine serum, 2 mM glutamine, 100 U/mL penicillin and 100 μg/mL streptomycin. The ΦNX cells were transfected using standard Lipofectamine 2000 protocols. Viral supernatants were harvested 48 h posttransfection and filtered through a 0.45 μm nylon syringe filter. NIH3T3 cells were incubated with the retroviral supernatants supplemented with 4 μg/mL polybrene for 4-6 h at 37° C. Cells were cultured in growth media for 24 to 36 h to allow for viral integration, then assayed as described.
# Twenty-four hours prior to analysis, transduced NIH3T3 cells were plated at 1×10^5 cells per well of a 12-well plate and treated with vehicle or blue light for indicated time points prior to analysis. […] Samples were analyzed at the Stanford Shared FACS Facility with 10,000 events represented.
# For immunoblotting, NIH3T3 cells were washed in PBS and lysed on ice in MIPP buffer containing protease inhibitors. Protein concentration was measured by Bradford assay. […]
# [2] = tested on: 3T3 cells; conditions: cited from earlier work
Compound,effect on light-dependent decrease in fluorescence of YFP-LOV24 [1],fluorescence of YFP with C-terminal degron [2]
CC(C)C[C@@H](C=O)NC(=O)[C@H](CC(C)C)NC(=O)[C@H](CC(C)C)NC(=O)OCc1ccccc1 [MG132] (Cbz-Leu-Leu-Leu-aldehyde),prevents the light-dependent decrease in fluorescence,
RRRG,,no fluorescence is observed
